Reference: patent US20040203034A1 (The University of Chicago, priority 2003, published 2004)
Like-named read-outs stand apart in the source and are kept apart here.

Key:
[1] = target: T1, UGT1A1 (Homo sapiens, UniProt P22309); experiment: SN-38 glucuronidation assay in human liver microsomes; format: in vitro ADME; details: for SN-38 glucuronidation rate: Caucasians
T1 construct: microsomes were isolated following differential centrifugation methods; tissue Liver Tissue Procurement and Distribution System; Liver Core Bank Facility (St. Jude Children's Research Hospital); host or cells: normal human liver microsomes (n=83 donors)
T1 sequence (P22309 26-533): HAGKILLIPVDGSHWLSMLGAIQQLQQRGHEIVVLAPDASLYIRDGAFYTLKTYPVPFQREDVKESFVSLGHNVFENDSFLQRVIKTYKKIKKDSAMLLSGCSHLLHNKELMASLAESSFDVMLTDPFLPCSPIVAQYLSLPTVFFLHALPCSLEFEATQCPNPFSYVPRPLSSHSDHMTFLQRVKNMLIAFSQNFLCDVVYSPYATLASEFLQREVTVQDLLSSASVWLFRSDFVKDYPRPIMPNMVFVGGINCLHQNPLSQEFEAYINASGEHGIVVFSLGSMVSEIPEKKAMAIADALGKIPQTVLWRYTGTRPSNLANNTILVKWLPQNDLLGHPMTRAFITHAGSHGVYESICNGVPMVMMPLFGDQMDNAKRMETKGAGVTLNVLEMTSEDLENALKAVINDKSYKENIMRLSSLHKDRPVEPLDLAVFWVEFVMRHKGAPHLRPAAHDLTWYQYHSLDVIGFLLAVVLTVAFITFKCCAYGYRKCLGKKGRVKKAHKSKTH
Text: Normal human livers (n=83) were mainly obtained from Liver Tissue Procurement and Distribution System (National Institutes of Diabetes and Digestive and Kidney Diseases, Minneapolis, Minn.). DNA was isolated by using Qiagen RNA/DNA Maxi Kit (Qiagen Inc., Valencia, Calif., USA), and microsomes were isolated following differential centrifugation methods (Purba et al., 1987). DNA and microsomes were provided by the Liver Core Bank Facility (St. Jude Children's Research Hospital) of the Pharmacogenetics of Anticancer Agents Research (PAAR) Group. In order to identify livers in which enzyme degradation occurred, liver samples consistently comprised in the 10th percentile of UGT1A1, UGT1A9 and UGT2B7 activities were sought. UGT1A9 and UGT2B7 activities were measured using specific probes (data not shown) (Ramirez et al., 2002 and Innocenti, et al., 2001). Out of eight samples within the 10th percentile of UGT1A1, only one sample was comprised within the 10th percentile of activities of the other two enzyme activities.
Samples were phenotyped by using SN-38 as a substrate for UGT1A1. The incubation mixture consisted of 5 μmol SN-38, 10 mmol MgCl2, 1 mg/ml microsomes, 0.025 mol Tris-HCl (pH 7.4) and 5 mmol UDP-GA. Samples were incubated for 30 min at 37° C. The reaction was stopped by the addition of methanol. These conditions were selected after previous optimization of the enzyme reaction (Iyer et al., 1998). Camptothecin (75 ng) was used as an internal standard. SN-38 glucuronidation was measured by HPLC (Hitachi Instruments Inc., San Jose, Calif., USA) with fluorescence detection (λ excitation=355 nm, λ emission=515 nm). A μBondapak™ C18 column (3.9×300 mm, 10 μm; Waters Corp., Milford, Mass., USA) and μBondapak™ C18 guardpak (Waters Corp.) were used. A mobile phase of […] acetonitrile/tetra-hydrofuran/0.9 mmol sodium heptanedfonic acid in 50 mmol potassium dihydrogen phosphate (pH 4) was used during the first 7 min of the run. From 7.1-25 min, the eluent consisted of 30/70 acetonitrile/5 mmol sodium heptanesulfonic acid in 50 mmol potassium dihydrogen phosphate (pH 4). The flow rate was 0.9 ml/min. […] The intra-assay variability was determined by performing 10 incubations on the same day using a pool of human liver microsomes. The inter-assay variability was evaluated by incubating a pool of human liver microsomes in triplicate on three different days. […]
UGT1A1 activity was phenotyped by measuring SN-38 glucuronidation rates of each liver as the mean±SD of a single experiment performed in triplicate. […] Moreover, trend analysis and pairwise comparisons were performed in genotypes expressed as the sum of TA repeats in both chromosomes (i.e. in samples with […] (5/6, 6/6, 5/7), 13 (6/7) and […] (7/7, 6/8, 7/8) TA repeat genotypes). […]

[2] = tested on: UGT1A isoforms; experiment: In vitro TAS-103 and SN-38 glucuronidation activity in species deficient in UGT1A isoforms; format: in vitro ADME; details: Gunn rats and CN-1 patients deficient in UGT1A isoforms
Text: On the other hand, while isoforms of the UGT1 family are the predominate isoforms involved in TAS-103 glucuronidation, the isoform of the UGT2 family may also participate in TAS-103 glucuronidation. Failure to glucuronidate SN-38 and TAS-103 in these instances may result specifically from the genetic defect in UGT1 gene family.

[3] = Pharmacokinetic analysis of irinotecan and metabolites in patient plasma; format: in vivo, human; details: for SN-38 AUC, mean / SN-38^b AUC, mean: after irinotecan; for AUC: human, plasma, 350 mg/m2, Irinotecan AUC, mean
Description: Venous blood for pharmacokinetic analysis was collected on day 1 of cycle 1 for pharmacokinetic analysis. Samples of 7 ml were collected into green top sodium heparinized Vacutainer® tubes prior to the infusion; 30, 60, and 90 minutes during the infusion; and 10, 20, 30, 45, and 60 minutes and 1.5, 2, 4, 6, 12, and 24 hours after the infusion. Samples were centrifuged (2500 rpm, 20 min, 4° C.) and the plasma was immediately separated, transferred as two aliquots into storage tubes, frozen at −80° C. until analysis.
The glucuronidation ratio was expressed as the ratio of the SN-38G AUC over SN-38 AUC.

[4] = tested on: patients; details: cited from earlier work
[5] = tested on: solid tumors or lymphoma; experiment: Objective tumor response in patients given irinotecan; format: in vivo, human
[6] = tested on: patients with solid tumors or lymphoma
[7] = TA indel genotype 6/6, 30 patients
[8] = TA indel genotype 6/7, 25 patients
[9] = TA indel genotype 7/7, 6 patients

## CCc1c2c(nc3ccc(O)cc13)-c1cc3c(c(=O)n1C2)COC(=O)[C@]3(O)CC [SN-38, 7-ethyl-10-hydroxycamptothecin]
[1]; 83 human liver microsomes
  coefficient of variation of SN-38 glucuronidation: 46%
  range in SN-38 glucuronidation: 10 fold
[1]; I/I haplotype pairs
  SN-38 glucuronidation rate: 2.53±0.82 SN-38G/IS
[1]; I/II haplotype pairs
  SN-38 glucuronidation rate: 2.06±0.74 SN-38G/IS
[2]
  in vitro glucuronidation compared to healthy liver donors: no in vitro glucuronidation
[3]; [7]
  Glucuronidation Ratio (SN-38G AUC/SN-38 AUC), mean: 6.52
  SN-38 AUC, mean: 335.9 ng·h/mL
  SN-38^b AUC, mean: 1954.2 ng·h/mL
[3]; [8]
  Glucuronidation Ratio (SN-38G AUC/SN-38 AUC), mean: 5.55
  SN-38 AUC, mean: 458.4 ng·h/mL
  SN-38^b AUC, mean: 1887.9 ng·h/mL
[3]; [9]
  Glucuronidation Ratio (SN-38G AUC/SN-38 AUC), mean: 3.59
  SN-38 AUC, mean: 542.0 ng·h/mL
  SN-38^b AUC, mean: 1819.1 ng·h/mL

## CN(C)CCNc1nc2cc(O)ccc2c2c1C(=O)c1ccccc1-2.Cl.Cl [TAS-103, 6-[[2-(dimethylamino)ethyl]amino]-3-hydroxy-7H-indeno[2,1-c]quinoline-7-one dihydrochloride]
[2]
  lower glucuronidation rate in vitro compared to healthy liver donors: ~80%

## CCc1c2c(nc3ccc(OC(=O)N4CCC(N5CCCCC5)CC4)cc13)-c1cc3c(c(=O)n1C2)COC(=O)[C@]3(O)CC [irinotecan, 7-ethyl-10-[4-(1-piperidino)-1-piperidino]carbonyloxycamptothecin]
[4]; both weekly and three-weekly regimens
  patients experiencing grade 3-4 neutropenia: 30-40%
[4]; early single agent trials (Negoro 1991; Rothenberg 1993)
  grade 3-4 diarrhea, share of patients: about one third
[4]; three-weekly regimen (Fuchs et al., 2003)
  frequency of grade 3-4 diarrhea: 19%
[4]; three-weekly single agent regimen (Fuchs et al., 2003)
  mortality rate: 1.6%
[4]; weekly schedule (Fuchs et al., 2003)
  frequency of grade 3-4 diarrhea: 36%
[4]; weekly single agent regimen (Fuchs et al., 2003)
  mortality rate: 5.3%
[5]; 60 patients assessable for response
  objective responses: three objective responses
[5]; colorectal and head and neck cancer, 6/7 genotype
  partial response, patients: Two patients
[5]; colorectal cancer, 6/6 genotype
  complete response, patients: One colorectal cancer patient
[3]; intravenous, TA indel genotype 6/7, 25 patients
  AUC: 26100 ng·h/mL
[3]; intravenous, TA indel genotype 7/7, 6 patients
  AUC: 25400 ng·h/mL
[3]; iv, TA indel genotype 6/6, 30 patients, 350 mg/m2 90 minute i.v. infusion
  AUC: 24400 ng·h/mL
[6]; TA indel genotype 6/6 (0/30), cycle 1
  frequency of grade 4 neutropenia: 0%
[6]; TA indel genotype 6/7 (3/24), cycle 1
  frequency of grade 4 neutropenia: 12.5%
[6]; TA indel genotype 7/7 (3/6), cycle 1
  frequency of grade 4 neutropenia: 50%
[6]; all assessable patients, cycle 1, 350 mg/m2 i.v. every 3 weeks
  frequency of grade 4 neutropenia: 9.5%
[6]; all patients, cycle 1
  frequency of grade 3 diarrhea: 5%
  grade 4 diarrhea: no instances
[6]; neutropenia-related sepsis, 7/7 genotype, died on day 11
  toxic death: One toxic death
[6]; out of the 7 patients with total bilirubin higher than 0.7 mg/dl
  patients with grade 4 neutropenia: 4
[6]; patients with pretreatment total bilirubin less than 0.6 mg/dl
  cases of grade 4 neutropenia: No cases
